Experimental data from patent US9765037B2, “Compositions and methods for treating toxoplasmosis, cryptosporidiosis, and other apicomplexan protozoan related diseases” (University of Washington Through its Center for …, priority 2010, dated 2017).
pEC50, pIC50: −log10 of the molar value. Values after ≈ are worked out from the molar mass of the structure shown.

How the values were obtained:
[1] = target: PfCDPK1 (Plasmodium falciparum (isolate 3D7), UniProt P62344); experiment: biochemical
[2] = tested on: human lymphocyte (CRL8155); experiment: Growth inhibition of human cell line CRL8155
[3] = tested on: colorectal carcinoma (HC 2998); experiment: Growth inhibition of human cell line HC 2998; details: 10 μM
[4] = target: HckKD (Homo sapiens (Human), UniProt P08631); experiment: Tyrosine kinase IC50, HckKD; type: biochemical; details: Table 9
[5] = target: PfCDPK4 (Plasmodium falciparum (isolate 3D7), UniProt Q8IBS5); experiment: biochemical
[6] = tested on: human promyelocytic leukemia (HL-60); experiment: Growth inhibition of human cell line HL-60
[7] = tested on: glioma derived (SF539); experiment: Growth inhibition of human cell line SF539; details: 10 μM
[8] = Solubility in buffers of various pH; type: physicochemical; details: buffer, pH 6.5, aqueous buffer; read-out: Experimental Solubility pH 6.5
[9] = tested on: human fibroblast; experiment: Human fibroblast replication / cytotoxicity (Alamar blue); type: cell-based
[10] = target: CpCDPK1 (Cryptosporidium parvum (strain Iowa II), UniProt A3FQ16); experiment: biochemical; type: biochemical; details: read-out: CpCDPK1 IC50
Sequence of CpCDPK1 (A3FQ16 1-538): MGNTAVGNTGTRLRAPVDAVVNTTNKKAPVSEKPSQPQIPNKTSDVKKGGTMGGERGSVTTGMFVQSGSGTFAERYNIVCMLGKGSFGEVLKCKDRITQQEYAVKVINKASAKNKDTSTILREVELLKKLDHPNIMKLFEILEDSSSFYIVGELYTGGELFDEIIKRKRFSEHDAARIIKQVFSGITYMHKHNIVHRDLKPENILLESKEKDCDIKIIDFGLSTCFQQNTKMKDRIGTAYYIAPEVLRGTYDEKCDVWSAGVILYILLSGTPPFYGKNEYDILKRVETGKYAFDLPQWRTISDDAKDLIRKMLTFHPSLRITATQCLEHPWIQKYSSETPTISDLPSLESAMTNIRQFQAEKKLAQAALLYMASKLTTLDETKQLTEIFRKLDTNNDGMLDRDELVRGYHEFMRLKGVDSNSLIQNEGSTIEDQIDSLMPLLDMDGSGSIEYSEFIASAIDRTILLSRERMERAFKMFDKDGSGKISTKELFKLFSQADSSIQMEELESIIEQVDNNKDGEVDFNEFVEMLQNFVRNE

Sequence of HckKD (P08631 262-515): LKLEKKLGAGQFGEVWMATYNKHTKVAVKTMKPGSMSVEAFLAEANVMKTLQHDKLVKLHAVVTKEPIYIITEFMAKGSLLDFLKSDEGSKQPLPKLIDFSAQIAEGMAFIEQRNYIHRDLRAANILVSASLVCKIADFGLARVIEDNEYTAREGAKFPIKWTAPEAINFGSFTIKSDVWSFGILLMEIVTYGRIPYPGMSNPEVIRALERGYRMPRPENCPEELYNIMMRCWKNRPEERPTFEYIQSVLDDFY

Structure (SMILES) | pEC50 [1] | Cell Toxicity CRL8155, % at 10 μM [2] [% at 10 μM] | Cell Toxicity HCC2998, % at 10 μM [3] [% at 10 μM] | IC50 [4] [µM] | pEC50 [5] | Cell Toxicity HL60, % at 10 μM [6] [% at 10 μM] | Cell Toxicity SF539, % at 10 μM [7] [% at 10 μM] | solubility [8] [µM] | Observed HFF Toxicity (T at concentration) [9] | pIC50 [10] | Cell Toxicity CRL8155, % at 30 μM ([2]; 30 μM) [% at 30 μM] | Cell Toxicity HL60, % at 30 μM ([6]; 30 μM) [% at 30 μM]
CCCOc1ccc2cc(-c3nn(C(C)C)c4ncnc(N)c34)ccc2c1 [Compound 12, 1-isopropyl-3-(6-propoxynaphthalen-2-yl)-1H-pyrazolo[3,4-d]pyrimidin-4-amine] | 6.18 | <30 | <30 | 0.244 | 6.28 | <30 | <30 | – | – | – | – | –
Nc1ncnc2c1c(-c1ccc3oc(-c4ccccc4)nc3c1)nn2CC1CCNCC1 [Compound 120] | 7.59 | – | – | – | 6.67 | – | – | 44 (≈ 18.7 µg/mL) | T at 25 μM | – | – | –
CCOc1ccc2cc(-c3nn(C(C)C)c4ncnc(N)c34)ccc2c1 [Compound 7r, 3-(6-ethoxynaphthalen-2-yl)-1-isopropyl-1H-pyrazolo[3,4-d]pyrimidin-4-amine] | 5.89 | <30 | <30 | 0.218 | 6.37 | <30 | <30 | 12 (≈ 4.17 µg/mL) | – | 7.92 | – | –
CC(C)Oc1ccc2cc(-c3nn(CC4CCNCC4)c4ncnc(N)c34)ccc2c1 [Compound 32, 3-(6-isopropoxynaphthalen-2-yl)-1-(piperidin-4-ylmethyl)-1H-pyrazolo[3,4-d]pyrimidin-4-amine] | 6.44 | – | – | > 10 | 7.26 | – | – | – | – | – | – | –
CCOc1ccc2cc(-c3nc(C(C)(C)C)n4ccnc(N)c34)ccc2c1 [Compound 69, 3-tert-butyl-1-(6-ethoxynaphthalen-2-yl)imidazo[1,5-a]pyrazin-8-amine] | 6.70 | <30 | – | – | 6.88 | <30 | – | 3 (≈ 1.08 µg/mL) | T at 25 μM | – | – | –
CC(C)n1nc(Cc2cccc3ccccc23)c2c(N)ncnc21 [Compound 3, 1-isopropyl-3-(naphthalen-1-ylmethyl)-1H-pyrazolo[3,4-d]pyrimidin-4-amine] | – | <30 | <30 | 1.38 | – | <30 | <30 | – | – | – | – | –
CC(C)n1nc(-c2ccc3cc(OCc4ccccc4)ccc3c2)c2c(N)ncnc21 [Compound 40, 3-(6-(benzyloxy)naphthalen-2-yl)-1-isopropyl-1H-pyrazolo[3,4-d]pyrimidin-4-amine] | 7.02 | – | – | – | 6.29 | – | – | – | T at 100 μM | – | – | –
Nc1ncnc2c1c(-c1ccc3cc(OCc4ccccc4Cl)ccc3c1)nn2CC1CCNCC1 [Compound 37, 3-(6-(2-chlorobenzyloxy)naphthalen-2-yl)-1-(piperidin-4-ylmethyl)-1H-pyrazolo[3,4-d]pyrimidin-4-amine] | 7.02 | – | – | – | 7.15 | – | – | – | T at 100 μM | – | – | –
Nc1ncnc2c1c(-c1ccc3cc(OCc4cccc(Cl)c4)ccc3c1)nn2CC1CCNCC1 [Compound 38, 3-(6-(3-chlorobenzyloxy)naphthalen-2-yl)-1-(piperidin-4-ylmethyl)-1H-pyrazolo[3,4-d]pyrimidin-4-amien] | 7.34 | <30 | – | – | 7.46 | <30 | – | – | T at 100 μM | – | 98 | 98
CC(C)Oc1ccc2cc(-c3nn(C(C)C)c4ncnc(N)c34)ccc2c1 [Compound 11, 3-(6-isopropoxynaphthalen-2-yl)-1-isopropyl-1H-pyrazolo[3,4-d]pyrimidin-4-amine] | 6.43 | <30 | <30 | 0.541 | 6.26 | <30 | <30 | – | – | – | – | –
